According to US9375004B2 (Bayer Intellectual Property GmbH, priority 2010, dated 2016):

Assay: logP by HPLC on reversed-phase column (EEC Directive 79/831 Annex V.A8)
Details: for logP: HPLC on reversed-phase column (C 18), EEC Directive 79/831 Annex V.A8

SMILES | logP | chromatographic logP (reversed-phase HPLC column (C 18))
Cn1nc(C(F)F)c(C(=S)Nc2ccccc2C2CC2C2CC2)c1Cl (single isomer, unassigned) [Example 49] | 3.79 | 
Cn1nc(C(F)F)c(C(=S)Nc2ccccc2C2CC2C2CC2)c1Cl (single isomer, unassigned) [Example 50] | 3.81 | 
Nc1ccc(F)cc1-c1ccc(C(F)(F)F)cc1 [5-fluoro-4′-(trifluoromethyl)biphenyl-2-amine] |  | 3.52
CC(C)CCc1cc(F)ccc1NC(=O)c1c(C(F)F)nn(C)c1F [Example 10] | 3.67 | 
CC(C)Oc1cccc(NC(=S)c2c(C(F)F)nn(C)c2Cl)c1 [Example 171] | 3.41 | 
CC(C)c1ccccc1NC(=O)c1c(C(F)F)nn(C)c1F [compound 1] | 2.82 | 
CC(C)c1ccccc1NC(=O)c1c(C(F)F)nn(C)c1Cl [compound 2] | 3.02 | 
Cn1nc(C(F)F)c(C(=O)Nc2ccccc2C(C)(C)C)c1Cl [compound 4] | 3.21 | 
CC(C)=CCc1ccccc1NC(=O)c1c(C(F)F)nn(C)c1Cl [compound 5] | 3.35 | 
CC(C)=CCc1ccccc1NC(=O)c1c(C(F)F)nn(C)c1F [compound 6] | 3.20 | 
Cc1cccc(CCC(C)(C)C)c1NC(=O)c1c(C(F)F)nn(C)c1F [compound 15] | 3.85 | 
Cc1cccc(NC(=O)c2c(C(F)F)nn(C)c2F)c1CCC(C)(C)C [compound 16] | 4.06 | 
Cc1ccc(CCC(C)(C)C)c(NC(=O)c2c(C(F)F)nn(C)c2F)c1 [compound 17] | 4.29 | 
Cn1nc(C(F)F)c(C(=O)Nc2cc(Cl)ccc2CCC(C)(C)C)c1F [compound 18] | 4.51 | 
C#CCOc1ccccc1NC(=O)c1c(C(F)F)nn(C)c1F [compound 26] | 2.71 | 
Cn1nc(C(F)F)c(C(=O)Nc2ccccc2OCC(C)(C)C)c1F [compound 27] | 4.08 | 
Cn1nc(C(F)F)c(C(=O)Nc2ccccc2OC(F)(F)C(F)F)c1F [compound 29] | 3.08 | 
Cn1nc(C(F)F)c(C(=O)Nc2ccccc2OC(F)(F)C(F)F)c1Cl [compound 30] | 3.31 | 
Cn1nc(C(F)F)c(C(=O)Nc2cccc(Cl)c2SCC(F)F)c1F [compound 33] | 3.53 | 
Cn1nc(C(F)F)c(C(=O)Nc2cc(F)ccc2SCC(F)F)c1F [compound 34] | 3.33 | 
Cn1nc(C(F)F)c(C(=O)Nc2ccccc2SC(F)(F)F)c1F [compound 36] | 3.37 | 

SMILES | logP | chromatographic logP (reversed-phase HPLC column (C 18))
Cn1nc(C(F)F)c(C(=O)Nc2ccccc2SCC(F)(F)F)c1F [compound 37] | 3.29 | 
Cn1nc(C(F)F)c(C(=O)Nc2cccc(Cl)c2SCC(F)(F)F)c1F [compound 39] | 3.73 | 
Cn1nc(C(F)F)c(C(=O)Nc2cc(Cl)ccc2SCC(F)(F)F)c1F [compound 40] | 3.92 | 
Cn1nc(C(F)F)c(C(=O)Nc2ccccc2SCC2CC2(Cl)Cl)c1F (stereo not drawn) [compound 41] | 3.27 | 
Cn1nc(C(F)F)c(C(=O)Nc2ccccc2SC(F)(F)C(F)(F)C(F)(F)F)c1F [compound 42] | 4.25 | 
Cn1nc(C(F)F)c(C(=O)Nc2ccccc2Br)c1F [compound 43] | 2.82 | 
Cn1nc(C(F)F)c(C(=O)Nc2ccccc2Br)c1Cl [compound 44] | 3.13 | 
Cn1nc(C(F)F)c(C(=O)Nc2ccccc2C2CC2)c1F [compound 45] | 2.96 | 
CC1CCCC(c2ccccc2NC(=O)c2c(C(F)F)nn(C)c2F)C1 (stereo not drawn) [compound 52] | 3.23 | 
Cn1nc(C(F)F)c(C(=O)Nc2cccc3c2CCCC3)c1F [compound 56] | 3.08 | 
Cn1nc(C(F)F)c(C(=O)Nc2cccc3c2CCCC3)c1Cl [compound 57] | 3.31 | 
Cn1nc(C(F)F)c(C(=O)Nc2cccc3c2OCCO3)c1Cl [compound 58] | 2.70 | 
Cn1nc(C(F)F)c(C(=O)Nc2cccc3c2OCCO3)c1F [compound 59] | 2.44 | 
Cn1nc(C(F)F)c(C(=O)Nc2cccc3c2OC(F)(F)O3)c1F [compound 62] | 2.77 | 
Cn1nc(C(F)F)c(C(=O)Nc2cccc3c2OC(F)(F)O3)c1Cl [compound 63] | 3.00 | 
Cc1ccccc1-c1ccccc1NC(=O)c1c(C(F)F)nn(C)c1Cl [compound 76] | 4.14 | 
Cc1cc(C)cc(-c2ccccc2NC(=O)c2c(C(F)F)nn(C)c2F)c1 [compound 81] | 4.11 | 
Cc1cc(C)cc(-c2ccccc2NC(=O)c2c(C(F)F)nn(C)c2Cl)c1 [compound 82] | 4.51 | 
Cn1nc(C(F)F)c(C(=O)Nc2ccccc2-c2cc(F)cc(F)c2)c1F [compound 91] | 3.31 | 
Cn1nc(C(F)F)c(C(=O)Nc2ccccc2-c2cc(F)cc(F)c2)c1Cl [compound 92] | 3.55 | 
CC(C)c1cccc(-c2ccccc2NC(=O)c2c(C(F)F)nn(C)c2F)c1 [compound 93] | 4.30 | 

SMILES | logP | chromatographic logP (reversed-phase HPLC column (C 18))
CC(C)c1cccc(-c2ccccc2NC(=O)c2c(C(F)F)nn(C)c2Cl)c1 [compound 95] | 4.76 | 
CC(C)c1ccc(-c2ccccc2NC(=O)c2c(C(F)F)nn(C)c2F)cc1 [compound 96] | 4.44 | 
CC(C)c1ccc(-c2ccccc2NC(=O)c2c(C(F)F)nn(C)c2Cl)cc1 [compound 97] | 4.86 | 
Cn1nc(C(F)F)c(C(=O)Nc2ccccc2-c2ccc(F)c(Cl)c2)c1F [compound 102] | 3.60 | 
Cn1nc(C(F)F)c(C(=O)Nc2ccccc2-c2ccc(F)c(Cl)c2)c1Cl [compound 103] | 3.85 | 
Cn1nc(C(F)F)c(C(=O)Nc2ccccc2-c2ccc(C(C)(C)C)cc2)c1F [compound 109] | 4.73 | 
Cn1nc(C(F)F)c(C(=O)Nc2ccccc2-c2ccc(C(C)(C)C)cc2)c1Cl [compound 110] | 5.14 | 
CC(C)Oc1cccc(-c2ccccc2NC(=O)c2c(C(F)F)nn(C)c2F)c1 [compound 111] | 3.96 | 
CC(C)Oc1cccc(-c2ccccc2NC(=O)c2c(C(F)F)nn(C)c2Cl)c1 [compound 112] | 4.36 | 
CC(C)Oc1ccc(-c2ccccc2NC(=O)c2c(C(F)F)nn(C)c2F)cc1 [compound 113] | 4.01 | 
CC(C)Oc1ccc(-c2ccccc2NC(=O)c2c(C(F)F)nn(C)c2Cl)cc1 [compound 114] | 4.36 | 
Cn1nc(C(F)F)c(C(=O)Nc2ccccc2-c2ccc(C(F)(F)F)cc2)c1Cl [compound 120] | 3.94 | 
Cn1nc(C(F)F)c(C(=O)Nc2ccccc2-c2cccc(Cl)c2Cl)c1F [compound 121] | 3.76 | 
Cn1nc(C(F)F)c(C(=O)Nc2ccccc2-c2cccc(Cl)c2Cl)c1Cl [compound 122] | 4.06 | 
Cn1nc(C(F)F)c(C(=O)Nc2ccccc2-c2ccc(Cl)cc2Cl)c1F [compound 123] | 3.89 | 
Cn1nc(C(F)F)c(C(=O)Nc2ccccc2-c2ccc(Cl)cc2Cl)c1Cl [compound 124] | 4.24 | 
Cn1nc(C(F)F)c(C(=O)Nc2ccccc2-c2cc(Cl)cc(Cl)c2)c1F [compound 127] | 4.01 | 
Cn1nc(C(F)F)c(C(=O)Nc2ccccc2-c2cc(Cl)cc(Cl)c2)c1Cl [compound 128] | 4.31 | 
CO/N=C(\C)c1ccc(-c2ccccc2NC(=O)c2c(C(F)F)nn(C)c2F)cc1 [compound 129] | 3.78 | 
CO/N=C(\C)c1ccc(-c2ccccc2NC(=O)c2c(C(F)F)nn(C)c2Cl)cc1 [compound 130] | 4.11 | 
CC(C)COc1ccc(-c2ccccc2NC(=O)c2c(C(F)F)nn(C)c2F)cc1 [compound 131] | 4.61 | 

SMILES | logP | chromatographic logP (reversed-phase HPLC column (C 18))
Cn1nc(C(F)F)c(C(=O)Nc2ccccc2-c2cccc([Si](C)(C)C)c2)c1Cl [compound 132] | 5.25 | 
Cn1nc(C(F)F)c(C(=O)Nc2ccccc2-c2cccc([Si](C)(C)C)c2)c1F [compound 133] | 4.83 | 
Cn1nc(C(F)F)c(C(=O)Nc2ccccc2-c2ccc([Si](C)(C)C)cc2)c1F [compound 134] | 4.98 | 
CC(C)COc1ccc(-c2ccccc2NC(=O)c2c(C(F)F)nn(C)c2Cl)cc1 [compound 135] | 4.96 | 
Cn1nc(C(F)F)c(C(=O)Nc2ccccc2-c2ccc([Si](C)(C)C)cc2)c1Cl [compound 136] | 5.39 | 
Cn1nc(C(F)F)c(C(=O)Nc2ccccc2-c2cccc(OC(F)(F)F)c2)c1F [compound 142] | 3.83 | 
Cn1nc(C(F)F)c(C(=O)Nc2ccccc2-c2cccc(OC(F)(F)F)c2)c1Cl [compound 143] | 4.11 | 
Cn1nc(C(F)F)c(C(=O)Nc2ccccc2-c2ccc(OC(F)(F)F)cc2)c1Cl [compound 144] | 4.19 | 
Cn1nc(C(F)F)c(C(=O)Nc2ccccc2-c2ccc(OC(F)(F)F)cc2)c1F [compound 145] | 3.92 | 
CC(C)O/N=C/c1ccc(-c2ccccc2NC(=O)c2c(C(F)F)nn(C)c2F)cc1 [compound 146] | 4.31 | 
CC(C)O/N=C/c1ccc(-c2ccccc2NC(=O)c2c(C(F)F)nn(C)c2Cl)cc1 [compound 147] | 4.63 | 
C/C(=N\OC(C)(C)C)c1ccc(-c2ccccc2NC(=O)c2c(C(F)F)nn(C)c2F)cc1 [compound 156] | 5.17 | 
C/C(=N\OC(C)(C)C)c1ccc(-c2ccccc2NC(=O)c2c(C(F)F)nn(C)c2Cl)cc1 [compound 157] | 5.54 | 
Cn1nc(C(F)F)c(C(=O)Nc2ccccc2OCc2ccccc2)c1F [compound 158] | 3.67 | 
Cn1nc(C(F)F)c(C(=O)Nc2ccccc2OCc2ccccc2)c1Cl [compound 159] | 3.99 | 
Cc1ccccc1Oc1ccccc1NC(=O)c1c(C(F)F)nn(C)c1F [compound 160] | 3.96 | 
Cc1ccccc1Oc1ccccc1NC(=O)c1c(C(F)F)nn(C)c1Cl [compound 161] | 4.29 | 
Cn1nc(C(F)F)c(C(=O)Nc2ccccc2OCc2cc(Cl)ccc2Cl)c1F [compound 162] | 4.56 | 
Cn1nc(C(F)F)c(C(=O)Nc2ccccc2Sc2ccc(Cl)cc2)c1F [compound 164] | 4.34 | 
Cn1nc(C(F)F)c(C(=O)Nc2ccccc2Sc2ccc(Cl)cc2)c1Cl [compound 165] | 4.63 | 
CCOc1ccc(NC(=O)c2c(C(F)F)nn(C)c2F)cc1OCC [compound 167] | 2.54 | 
